compound: CN(C)C(=N)NC(=N)N [Metformin]; test: relative viability (nuclei count vs DMSO), 5 days (fraction); higher = more cells survive; conditions: 10 µM
Summary of the method: (§1)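 Acceptance criteria were a control CV below 25% and at least one doubling per plate. Lung cancer cell lines in 1536-well plates got five library-drug doses (not always all listed) √10 apart by pinning and were left 5 days with no medium change. Viability divides treated-well nuclei by vehicle-well nuclei and is the median across plates. Nuclei were counted by MetaXpress from 4× Hoechst images.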

In order of falling relative viability:
1. NCI-H1703  1.3
2. NCI-H596  1.17
3. NCI-H1437  1.09
4. NCI-H1650  1.09
5. NCI-H520  1.08
6. NCI-H1651  1.08
7. NCI-H1299  1.07
8. NCI-H1395  1.06
9. NCI-H1975  1.06
10. NCI-H838  1.05
11. NCI-H727  1.04
12. NCI-H1993  1.03
13. NCI-H650  1.02
14. NCI-H1734  1.01
15. NCI-H647  0.978
16. NCI-H2085  0.977
17. NCI-H322M  0.974
18. NCI-H1563  0.954
19. NCI-H1793  0.943
20. NCI-H358  0.939
21. NCI-H1666  0.938
22. NCI-H2126  0.905
23. NCI-H1792  0.901
24. NCI-H2009  0.889
25. NCI-H1944  0.845
26. NCI-H1355  0.838
27. NCI-H1755  0.807
28. NCI-H661  0.801
29. NCI-H2087  0.79
30. NCI-H2023  0.782

same assay, conditions: 31.62 µM

In order of rising relative viability:
1. NCI-H1650  0.865
2. NCI-H1755  0.891
3. NCI-H1993  0.892
4. NCI-H322M  0.922
5. NCI-H520  0.928
6. NCI-H2085  0.939
7. NCI-H1355  0.953
8. NCI-H661  0.964
9. NCI-H2087  0.965
10. NCI-H1792  0.969
11. NCI-H2126  0.992
12. NCI-H1915  0.998
13. NCI-H1793  1.01
14. NCI-H1734  1.03
15. NCI-H1299  1.04
16. NCI-H647  1.05
17. NCI-H727  1.06
18. NCI-H838  1.07
19. NCI-H358  1.09
20. NCI-H650  1.1
21. NCI-H1944  1.1
22. NCI-H2009  1.1
23. NCI-H1563  1.11
24. NCI-H1666  1.11
25. NCI-H2023  1.13
26. NCI-H596  1.14
27. NCI-H1437  1.16
28. NCI-H1975  1.16
29. NCI-H23  1.17
30. NCI-H1651  1.17
31. NCI-H1395  1.3
32. NCI-H1703  1.42

same assay, conditions: 100 µM

In order of rising relative viability:
1. NCI-H650  0.816
2. NCI-H1755  0.864
3. NCI-H661  0.911
4. NCI-H2023  0.921
5. NCI-H322M  0.939
6. NCI-H2087  0.944
7. NCI-H1944  0.954
8. NCI-H2085  0.956
9. NCI-H1395  0.96
10. NCI-H1355  0.963
11. NCI-H23  0.969
12. NCI-H1666  0.971
13. NCI-H2126  0.981
14. NCI-H1793  0.993
15. NCI-H1703  0.998
16. NCI-H1993  1
17. NCI-H838  1.01
18. NCI-H1437  1.01
19. NCI-H596  1.02
20. NCI-H1915  1.02
21. NCI-H358  1.03
22. NCI-H1734  1.04
23. NCI-H2009  1.04
24. NCI-H647  1.05
25. NCI-H1792  1.06
26. NCI-H1299  1.07
27. NCI-H1975  1.09
28. NCI-H1651  1.12
29. NCI-H727  1.13
30. NCI-H1563  1.16
31. NCI-H1650  1.17
32. NCI-H520  1.18

same assay, conditions: 316.23 µM

In order of rising relative viability:
1. NCI-H727  0.688
2. NCI-H647  0.813
3. NCI-H2087  0.813
4. NCI-H1755  0.853
5. NCI-H2023  0.853
6. NCI-H1993  0.872
7. NCI-H661  0.875
8. NCI-H1944  0.882
9. NCI-H520  0.889
10. NCI-H2126  0.932
11. NCI-H322M  0.951
12. NCI-H650  0.953
13. NCI-H1395  0.956
14. NCI-H1915  0.968
15. NCI-H1793  0.977
16. NCI-H2085  0.977
17. NCI-H358  0.98
18. NCI-H838  0.987
19. NCI-H1355  0.992
20. NCI-H23  0.997
21. NCI-H1299  1.01
22. NCI-H1734  1.01
23. NCI-H1792  1.01
24. NCI-H2009  1.02
25. NCI-H1650  1.03
26. NCI-H1437  1.04
27. NCI-H596  1.06
28. NCI-H1703  1.06
29. NCI-H1563  1.07
30. NCI-H1666  1.07
31. NCI-H1651  1.11
32. NCI-H1975  1.12

same assay, conditions: 1000 µM

In order of rising relative viability:
1. NCI-H1395  0.521
2. NCI-H2023  0.769
3. NCI-H322M  0.855
4. NCI-H661  0.893
5. NCI-H1755  0.897
6. NCI-H1650  0.931
7. NCI-H647  0.939
8. NCI-H2085  0.991
9. NCI-H1915  1.01
10. NCI-H2087  1.01
11. NCI-H1734  1.02
12. NCI-H520  1.03
13. NCI-H1299  1.03
14. NCI-H2009  1.03
15. NCI-H2126  1.03
16. NCI-H838  1.04
17. NCI-H1944  1.04
18. NCI-H1355  1.05
19. NCI-H1792  1.05
20. NCI-H650  1.07
21. NCI-H1993  1.07
22. NCI-H1437  1.08
23. NCI-H358  1.09
24. NCI-H596  1.09
25. NCI-H1666  1.09
26. NCI-H1651  1.11
27. NCI-H23  1.13
28. NCI-H1563  1.14
29. NCI-H727  1.16
30. NCI-H1703  1.19
31. NCI-H1975  1.21
32. NCI-H1793  1.25

compound: N#CC1(c2ccc(NC(=O)c3cccnc3NCc3ccncc3)cc2)CCCC1 [Apatinib]; test: as above; conditions: 0.08 µM
Summary of the method: as §1

In order of rising relative viability:
1. NCI-H1703  0.784
2. NCI-H1792  0.884
3. NCI-H1650  0.904
4. NCI-H1395  0.914
5. NCI-H596  0.939
6. NCI-H1944  0.948
7. NCI-H1437  0.949
8. NCI-H1563  0.961
9. NCI-H322M  0.964
10. NCI-H1975  0.97
11. NCI-H661  0.973
12. NCI-H2126  0.975
13. NCI-H650  0.979
14. NCI-H2085  0.986
15. NCI-H358  0.987
16. NCI-H1651  0.988
17. NCI-H1355  0.993
18. NCI-H1666  1.01
19. NCI-H1993  1.01
20. NCI-H2023  1.01
21. NCI-H1755  1.02
22. NCI-H1793  1.02
23. NCI-H1299  1.04
24. NCI-H647  1.05
25. NCI-H2087  1.05
26. NCI-H1915  1.06
27. NCI-H2009  1.06
28. NCI-H23  1.08
29. NCI-H727  1.08
30. NCI-H838  1.08
31. NCI-H520  1.11
32. NCI-H1734  1.18

same assay, conditions: 0.253 µM

In order of falling relative viability:
1. NCI-H1395  1.11
2. NCI-H1563  1.08
3. NCI-H647  1.07
4. NCI-H838  1.06
5. NCI-H358  1.03
6. NCI-H596  1.03
7. NCI-H2087  1.03
8. NCI-H1650  1.01
9. NCI-H1793  1.01
10. NCI-H1299  1
11. NCI-H1755  1
12. NCI-H1437  0.995
13. NCI-H1734  0.987
14. NCI-H1651  0.984
15. NCI-H1975  0.981
16. NCI-H2009  0.979
17. NCI-H2085  0.979
18. NCI-H23  0.977
19. NCI-H1355  0.962
20. NCI-H1915  0.959
21. NCI-H1666  0.958
22. NCI-H520  0.945
23. NCI-H2023  0.94
24. NCI-H650  0.927
25. NCI-H1993  0.923
26. NCI-H1944  0.921
27. NCI-H661  0.908
28. NCI-H2126  0.904
29. NCI-H1792  0.883
30. NCI-H727  0.879
31. NCI-H322M  0.861
32. NCI-H1703  0.769

same assay, conditions: 0.8 µM

In order of rising relative viability:
1. NCI-H1703  0.355
2. NCI-H1793  0.857
3. NCI-H1650  0.86
4. NCI-H1944  0.886
5. NCI-H1792  0.887
6. NCI-H1993  0.889
7. NCI-H322M  0.894
8. NCI-H1975  0.91
9. NCI-H23  0.912
10. NCI-H727  0.937
11. NCI-H596  0.94
12. NCI-H2085  0.953
13. NCI-H1355  0.956
14. NCI-H358  0.962
15. NCI-H1915  0.963
16. NCI-H1395  0.964
17. NCI-H2009  0.968
18. NCI-H1666  0.969
19. NCI-H2126  0.969
20. NCI-H838  0.97
21. NCI-H661  0.973
22. NCI-H2023  0.974
23. NCI-H1563  0.98
24. NCI-H1651  0.986
25. NCI-H1734  0.991
26. NCI-H647  0.993
27. NCI-H1437  0.996
28. NCI-H650  1
29. NCI-H1299  1
30. NCI-H1755  1
31. NCI-H520  1.01
32. NCI-H2087  1.22

same assay, conditions: 2.53 µM

In order of rising relative viability:
1. NCI-H1703  0.199
2. NCI-H1395  0.685
3. NCI-H650  0.745
4. NCI-H2009  0.762
5. NCI-H727  0.77
6. NCI-H1793  0.772
7. NCI-H2087  0.788
8. NCI-H1944  0.791
9. NCI-H520  0.813
10. NCI-H1437  0.83
11. NCI-H1650  0.832
12. NCI-H1993  0.833
13. NCI-H647  0.837
14. NCI-H1975  0.844
15. NCI-H1792  0.863
16. NCI-H1915  0.879
17. NCI-H2023  0.881
18. NCI-H1355  0.9
19. NCI-H1734  0.909
20. NCI-H596  0.911
21. NCI-H2126  0.918
22. NCI-H2085  0.92
23. NCI-H661  0.929
24. NCI-H1299  0.931
25. NCI-H1563  0.931
26. NCI-H838  0.936
27. NCI-H23  0.937
28. NCI-H1651  0.939
29. NCI-H358  0.961
30. NCI-H322M  0.975
31. NCI-H1666  0.997
32. NCI-H1755  1.06

same assay, conditions: 8 µM

In order of falling relative viability:
1. NCI-H322M  1.07
2. NCI-H2126  1.02
3. NCI-H1666  0.986
4. NCI-H2085  0.971
5. NCI-H1755  0.951
6. NCI-H661  0.948
7. NCI-H1975  0.943
8. NCI-H838  0.941
9. NCI-H1944  0.921
10. NCI-H1299  0.917
11. NCI-H1355  0.885
12. NCI-H2023  0.883
13. NCI-H596  0.882
14. NCI-H23  0.88
15. NCI-H358  0.877
16. NCI-H1651  0.871
17. NCI-H1993  0.869
18. NCI-H1563  0.867
19. NCI-H647  0.852
20. NCI-H1734  0.845
21. NCI-H1395  0.844
22. NCI-H727  0.843
23. NCI-H1650  0.824
24. NCI-H1915  0.821
25. NCI-H2087  0.814
26. NCI-H520  0.81
27. NCI-H1437  0.799
28. NCI-H650  0.763
29. NCI-H1793  0.749
30. NCI-H1792  0.725
31. NCI-H2009  0.618
32. NCI-H1703  0.19
